From patent US9266830B2, “Pesticidal arylpyrrolidines” (Bayer Intellectual Property GmbH, priority 2007, dated 2016)

How the values were obtained:
Type in all cases: in vivo
[1] = tested on: Boophilus microplus; assay: Boophilus microplus (dip); details: application rate 100 ppm, adult engorged females, after 7 days
Protocol: (§1) Solvent: dimethyl sulfoxide
To produce a suitable preparation of active compound, 10 mg of active compound are dissolved in 0.5 ml solvent, and the concentrate is diluted with water to the desired concentration. Eight to ten adult engorged female Boophilus microplus ticks are placed in perforated plastic beakers and immersed in aqueous compound solution for one minute. Ticks are transferred to a filter paper in a plastic tray. Egg deposition of fertile eggs is monitored after. After 7 days mortality in % is determined 100% means that all the ticks have been killed; 0% means that none of the ticks have been killed.

[2] = tested on: Boophilus microplus; assay: Boophilus microplus test (injection); details: application rate 20 μg/animal, adult engorged females, after 7 days
Outline: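 Compound dissolved and diluted in DMSO, then injected into the abdomen of adult engorged female ticks, five per dose. Ticks held in a climate chamber and fertile egg deposition monitored. Read at 7 days as %, 100% = all eggs infertile, 0% = all fertile.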

[3] = tested on: Musca domestica; assay: Musca domestica test (sugar sponge); details: for activity (mortality in %): application rate 100 ppm, adults, after 2 days
Protocol: as §1
To produce a suitable preparation of active compound, 10 mg of active compound are dissolved in 0.5 ml solvent, and the concentrate is diluted with water to the desired concentration. Prior to the assay, a piece or kitchen sponge is soaked with a mixture of sugar and compound solution and placed into a container. 10 adults (Musca domestica) are placed into the container and closed with a perforated lid. After 2 days mortality in % is determined. 100% means that all the flies have been killed; 0% means that none of the flies have been killed.

[4] = tested on: Amblyomma hebraeum; assay: Amblyomma hebraeum test (AMBYHE), nymph immersion; details: for activity (mortality in %): application rate 100 ppm, nymphs, after 42 days
Protocol: as §1
To produce a suitable preparation of active compound, 10 mg of active compound are dissolved in 0.5 ml solvent, and the concentrate is diluted with water to the desired concentration. Nymphs of the tick Amblyomma hebraeum are placed in perforated plastic beakers and immersed in aqueous compound solution for one minute. Ticks are transferred to a filter paper in a Petri dish and incubated in a climate chamber for 42 days.
After 42 days mortality in % is determined 100% means that all the ticks have been killed; 0% means that none of the ticks have been killed.

[5] = tested on: organic phosphorus agent- and carbamate agent-resistant Myzus persicae; assay: Test for organic phosphorus agent- and carbamate agent-resistant Myzus persicae (spray, eggplant); details: 100 ppm active ingredient, 7 days
Protocol: If not mentioned otherwise, all sample solutions were prepared as described in Biological Test Example 1 and diluted to the appropriate (predetermined) concentrations.
About 30 to 50 of grown organic phosphorus agent- and carbamate agent-resistant Myzus persicae per seedling were inoculated to leaves at 2-leaf stage of eggplants grown in a pot of 6 cm in diameter, to which, after 1 day from the inoculation, the above prepared water-diluted solution of above active compound of the predetermined concentration was sufficiently sprayed with a spray gun. After the spraying, the pot was left in a greenhouse at room temperature for 7 days, followed by the pest-controlling rate calculated. The test was repeated twice.

[6] = tested on: Ctenocephalides felis; assay: Ctenocephalides felis test (CTECFE), blood feeding; details: 48 h, read-out: activity (mortality in %)
Protocol: as §1
To produce a suitable preparation of active compound, 10 mg of active compound are dissolved in 0.5 ml solvent, and the concentrate is diluted with cattle blood to the desired concentration. Approximately 10 to 15 adult unfed (Ctenocepahlides felis) are placed in flea chambers. The blood chamber, are sealed with parafilm on the bottom are filled with cattle blood supplied with compound solution and placed on top of the flea chamber, so that the fleas are able to suck the blood. The blood chamber is heated to 37° C. whereas the flea chamber is kept at room temperature. After 2 days mortality in % is determined 100% means that all the fleas have been killed; 0% means that none of the fleas have been killed.

[7] = tested on: Lucilia cuprina larvae; assay: Lucilia cuprina test (larvae in minced horse meat); details: for mortality at 100 ppm: Lucilia cuprina, 48 h, read-out: activity (mortality in %)
Protocol: as §1
To produce a suitable preparation of active compound, 10 mg of active compound are dissolved in 0.5 ml solvent, and the concentrate is diluted with water to the desired concentration. Approximately 20-30 (Lucilia cuprina larvae) are transferred into a test tube containing 1 cm^3 of minced horse meat and 0.5 ml aqueous dilution of test compound. After 2 days mortality in % is determined 100% means that all the larvae have been killed; 0% means that none of the larvae have been killed.

## CC(C)CC(=O)NCc1ccc(N2CCC(c3cc(Cl)cc(Cl)c3)(C(F)(F)F)C2)cc1Cl (stereo not shown) [1-7]
[1]
  activity (mortality in %): 80%
[2]
  activity (100% means that all eggs are infertile): 100%

## N#CCC(=O)NCc1ccc(N2CCC(c3cc(Cl)cc(Cl)c3)(C(F)(F)F)C2)cc1Cl (stereo not shown) [1-39]
[3]
  activity (mortality in %): 90%
[2]
  activity (100% means that all eggs are infertile): 100%

## CCNC(=O)NCc1ccc(N2CCC(c3cc(Cl)cc(Cl)c3)(C(F)(F)F)C2)cc1Cl (stereo not shown) [1-77]
[1]
  activity (mortality in %): 80%
[2]
  activity (100% means that all eggs are infertile): 100%

## O=C(NCc1ccc(N2CCC(c3cc(Cl)cc(Cl)c3)(C(F)(F)F)C2)cc1Cl)NCC(F)(F)F (stereo not shown) [1-78]
[1]
  activity (mortality in %): 80%
[2]
  activity (100% means that all eggs are infertile): 100%

## CCC(=O)NCc1ccc(N2CCC(c3cc(Cl)cc(Cl)c3)(C(F)(F)F)C2)cc1C(F)(F)F (stereo not shown) [1-143]
[4]; 0.8 ppm, comparison with WO2008/128711
  Activity at 0.8 ppm: 100%
[4]; 4 ppm, comparison with WO2008/128711
  Activity at 4 ppm: 100%
[5]
  insecticidal rate (pest-controlling rate): 100%
[2]
  activity (100% means that all eggs are infertile): 100%

## O=C(CC(F)(F)F)NCc1ccc(N2CCC(c3cc(Cl)cc(Cl)c3)(C(F)(F)F)C2)cc1C(F)(F)F (stereo not shown) [1-162]
[1]
  activity (mortality in %): 95%
[2]
  activity (100% means that all eggs are infertile): 100%

## O=C(NCc1ccc(N2CCC(c3cc(Cl)cc(Cl)c3)(C(F)(F)F)C2)cc1C(F)(F)F)C(F)F (stereo not shown) [1-164]
[1]
  activity (mortality in %): 95%
[2]
  activity (100% means that all eggs are infertile): 100%

## CC=CC(=O)NCc1ccc(N2CCC(c3cc(Cl)cc(Cl)c3)(C(F)(F)F)C2)cc1C(F)(F)F (stereo not shown) [1-174]
[1]
  activity (mortality in %): 80%
[2]
  activity (100% means that all eggs are infertile): 100%

## O=C(NCc1ccc(N2CCC(c3cc(Cl)cc(Cl)c3)(C(F)(F)F)C2)cc1C(F)(F)F)c1ccc(Cl)nc1 (stereo not shown) [1-198, 6-chloro-N-{4-[3-(3,5-dichlorophenyl)-3-(trifluoromethyl)-pyrrolidin-1-yl]-2-(trifluoromethyl)benzyl}pyridine-3-carboxyamide]
[6]
  mortality at 100 ppm: 90%
[7]
  mortality at 100 ppm: 100%
[2]
  activity (100% means that all eggs are infertile): 100%

## CCNC(=O)NCc1ccc(N2CCC(c3cc(Cl)cc(Cl)c3)(C(F)(F)F)C2)cc1C(F)(F)F (stereo not shown) [1-220]
[3]
  activity (mortality in %): 90%
[2]
  activity (100% means that all eggs are infertile): 100%

## C#CCNC(=O)NCc1ccc(N2CCC(c3cc(Cl)cc(Cl)c3)(C(F)(F)F)C2)cc1C(F)(F)F (stereo not shown) [1-231]
[3]
  activity (mortality in %): 95%
[2]
  activity (100% means that all eggs are infertile): 100%

## O=C(NCCC(F)(F)F)NCc1ccc(N2CCC(c3cc(Cl)cc(Cl)c3)(C(F)(F)F)C2)cc1C(F)(F)F (stereo not shown) [1-238]
[3]
  activity (mortality in %): 90%
[4]
  activity (mortality in %): 85%
[2]
  activity (100% means that all eggs are infertile): 100%

## CNC(=O)NCc1ccc(N2CCC(c3cc(C(F)(F)F)cc(C(F)(F)F)c3)(C(F)(F)F)C2)cc1C(F)(F)F (stereo not shown) [1-301]
[1]
  activity (mortality in %): 80%
[2]
  activity (100% means that all eggs are infertile): 100%

## CCNC(=O)NCc1ccc(N2CCC(c3cc(C(F)(F)F)cc(C(F)(F)F)c3)(C(F)(F)F)C2)cc1C(F)(F)F (stereo not shown) [1-302]
[1]
  activity (mortality in %): 90%
[2]
  activity (100% means that all eggs are infertile): 100%

## O=C(NCc1ccc(N2CCC(c3cc(C(F)(F)F)cc(C(F)(F)F)c3)(C(F)(F)F)C2)cc1C(F)(F)F)NC1CC1 (stereo not shown) [1-305]
[4]
  activity (mortality in %): 90%
[1]
  activity (mortality in %): 80%
[2]
  activity (100% means that all eggs are infertile): 100%

## O=C(CC(F)(F)F)NCc1ccc(N2CCC(c3cc(C(F)(F)F)cc(C(F)(F)F)c3)(C(F)(F)F)C2)cc1Cl (stereo not shown) [1-309]
[5]
  insecticidal rate (pest-controlling rate): 100%
[2]
  activity (100% means that all eggs are infertile): 100%

## O=C(CC(F)(F)F)NCc1ccc(N2CCC(c3cc(C(F)(F)F)cc(C(F)(F)F)c3)(C(F)(F)F)C2)cc1Br (stereo not shown) [1-314]
[5]
  insecticidal rate (pest-controlling rate): 100%
[2]
  activity (100% means that all eggs are infertile): 100%

## CCCC(=O)NCc1ccc(N2CCC(c3cc(Cl)c(Cl)c(Cl)c3)(C(F)(F)F)C2)cc1C(F)(F)F (stereo not shown) [1-328]
[5]
  insecticidal rate (pest-controlling rate): 100%

## CCC(=O)NCc1ccc(N2CCC(c3cc(Cl)cc(C(F)(F)F)c3)(C(F)(F)F)C2)cc1C(F)(F)F (stereo not shown) [1-356]
[5]
  insecticidal rate (pest-controlling rate): 100%

## CSCCC(=O)NCc1ccc(N2CCC(c3cc(Cl)cc(Cl)c3)(C(F)(F)F)C2)cc1Cl (stereo not shown) [1-467]
[4]
  activity (mortality in %): 90%
[1]
  activity (mortality in %): 90%
[2]
  activity (100% means that all eggs are infertile): 100%

## CCSCC(=O)NCc1ccc(N2CCC(c3cc(Cl)cc(Cl)c3)(C(F)(F)F)C2)cc1C(F)(F)F (stereo not shown) [1-499]
[3]
  activity (mortality in %): 90%
[2]
  activity (100% means that all eggs are infertile): 100%

## O=C(Cn1cncn1)NCc1ccc(N2CCC(c3cc(Cl)cc(Cl)c3)(C(F)(F)F)C2)cc1C(F)(F)F (stereo not shown) [1-558]
[1]
  activity (mortality in %): 80%
[2]
  activity (100% means that all eggs are infertile): 100%

## Cc1nc(N2CCC(c3cc(Cl)cc(Cl)c3)(C(F)(F)F)C2)ncc1C(=O)NCC(F)(F)F (stereo not shown) [2-69]
[7]; application rate 100 ppm, larvae, after 2 days
  activity (mortality in %): 90%
[2]
  activity (100% means that all eggs are infertile): 100%

## CCC(=O)NCc1cnc(N2CCC(c3cc(Cl)c(Cl)c(Cl)c3)(C(F)(F)F)C2)nc1C(F)(F)F (stereo not shown) [3-142]
[5]
  insecticidal rate (pest-controlling rate): 100%
[2]
  activity (100% means that all eggs are infertile): 100%

## O=C(NCC(F)(F)F)c1sc(N2CCC(c3cc(Cl)c(Cl)c(Cl)c3)(C(F)(F)F)C2)nc1C(F)(F)F (stereo not shown) [4-21]
[3]
  activity (mortality in %): 90%
[2]
  activity (100% means that all eggs are infertile): 100%

## CCC(=O)NCc1sc(N2CCC(c3cc(Cl)cc(Cl)c3)(C(F)(F)F)C2)nc1C(F)(F)F (stereo not shown) [5-4]
[3]
  activity (mortality in %): 85%
[2]
  activity (100% means that all eggs are infertile): 100%

## O=C(CC(F)(F)F)NCc1sc(N2CCC(c3cc(Cl)cc(Cl)c3)(C(F)(F)F)C2)nc1C(F)(F)F (stereo not shown) [5-22]
[3]
  activity (mortality in %): 95%
[2]
  activity (100% means that all eggs are infertile): 100%

## CCC(=O)NCc1sc(N2CCC(c3cc(Cl)c(Cl)c(Cl)c3)(C(F)(F)F)C2)nc1C(F)(F)F (stereo not shown) [5-142, N-({2-[3-(3,4,5-trichlorophenyl)-3-(trifluoromethyl)pyrrolidin-1-yl]-4-(trifluoromethyl)-1,3-thiazol-5-yl}methyl)propanamide]
[3]; Musca domestica, 48 h, read-out: activity (mortality in %)
  mortality at 100 ppm: 100%
[6]
  mortality at 100 ppm: 100%
[7]
  mortality at 100 ppm: 100%
[2]
  activity (100% means that all eggs are infertile): 100%

## O=C(CC(F)(F)F)NCc1sc(N2CCC(c3cc(C(F)(F)F)cc(C(F)(F)F)c3)(C(F)(F)F)C2)nc1C(F)(F)F (stereo not shown) [5-150]
[3]
  activity (mortality in %): 95%
[2]
  activity (100% means that all eggs are infertile): 100%
